Results published in patent publication US12516049B2, “Sulfonylurea ring substituted monocyclic β-lactam antibiotics” (priority 2019, dated 2026).
Converted amounts (≈) assume the structure as drawn.

Legend:
Test in all cases: MIC, micro-liquid dilution (CLSI)
Assay type in all cases: cell-based
[1] = test system: Enterobacter cloacae ATCC BAA-1143 (AmpC); details: ATCCBAA1143, E. cloacae ATCC BAA-1143, Class C (AmpC), 20-24 h, 37° C.
Description: (§1) Three strains of Klebsiella pneumonia, ATCC BAA-205 (TEM-1/SHV-1/SHV-12), ATCC BAA-1705 (KPC-2), ATCC BAA-2470 (NDM-1), Enterobacter cloacae ATCC BAA-1143 (AmpC), two strains of Escherichia coli ATCC BAA-2523 (OXA-48), ATCC 25922 were used to determine the minimum inhibitory concentration (MIC) of each of the compounds by micro-liquid dilution method according to the Institute of Clinical and Laboratory Standard (CLSI) requirements. […]. The plate was placed upside down at 37° C. and the MIC value was read after 20-24 h of incubation, and the lowest drug concentration that inhibited the growth of bacteria was set as MIC. Colony-Forming Units (CFU) refer to the total number of bacterial colonies per unit volume.

[2] = test system: Escherichia coli ATCC BAA-2523 (OXA-48); details: ATCCBAA2523, E. coli ATCC BAA-2523, Class D (OXA-48), 20-24 h, 37° C., read-out: MIC
Description: as §1

[3] = test system: Klebsiella pneumonia ATCC BAA-205 (TEM-1/SHV-1/SHV-12); details: Klebsiella pneumoniae, ATCCBAA205; K. pneumonia ATCC BAA-205, Class A (TEM-1/SHV-1/SHV-12); 20-24 h, 37° C.
Description: as §1

[4] = test system: Escherichia coli ATCC 25922; details: ATCC25922, E. coli ATCC 25922, 20-24 h, 37° C.
Description: as §1

[5] = test system: Klebsiella pneumonia ATCC BAA-2470 (NDM-1); details: Klebsiella pneumoniae, ATCCBAA2470; K. pneumonia ATCC BAA-2470, Class B (NDM-1); 20-24 h, 37° C.
Description: as §1

[6] = test system: Klebsiella pneumonia ATCC BAA-1705 (KPC-2); details: Klebsiella pneumoniae, ATCCBAA1705; K. pneumonia ATCC BAA-1705, Class A (KPC-2); 20-24 h, 37° C.
Description: as §1

| MIC [1] | MIC [2] | MIC [3] | MIC [4] | MIC [5] | MIC [6] | SMILES |
| --- | --- | --- | --- | --- | --- | --- |
| 2 µg/mL (≈ 3.52 µM) | 1 µg/mL (≈ 1.76 µM) | 1 µg/mL (≈ 1.76 µM) | 4 µg/mL (≈ 7.05 µM) | 1 µg/mL (≈ 1.76 µM) | 2 µg/mL (≈ 3.52 µM) | Nc1nc(/C(=N/OC2(C(=O)O)CC2)C(=O)N[C@@H]2C(=O)N(S(=O)(=O)O)[C@@H]2CN2CCCNS2(=O)=O)cs1 [Compound 2] |
| 2 µg/mL (≈ 3.2 µM) | 0.25 µg/mL (≈ 0.4 µM) | 2 µg/mL (≈ 3.2 µM) | 4 µg/mL (≈ 6.39 µM) | 1 µg/mL (≈ 1.6 µM) | 2 µg/mL (≈ 3.2 µM) | CC(=O)OC[C@@H]1CN(C[C@@H]2[C@H](NC(=O)/C(=N\OC3(C(=O)O)CC3)c3csc(N)n3)C(=O)N2S(=O)(=O)O)S(=O)(=O)N1 [Compound 3] |
| 1 µg/mL (≈ 1.6 µM) | 0.25 µg/mL (≈ 0.4 µM) | 1 µg/mL (≈ 1.6 µM) | 0.5 µg/mL (≈ 0.8 µM) | 0.5 µg/mL (≈ 0.8 µM) | 1 µg/mL (≈ 1.6 µM) | N=C(N)NC[C@@H]1CN(C[C@@H]2[C@H](NC(=O)/C(=N\OC3(C(=O)O)CC3)c3csc(N)n3)C(=O)N2S(=O)(=O)O)S(=O)(=O)N1 [Compound 5] |
| 1 µg/mL (≈ 1.6 µM) | 0.25 µg/mL (≈ 0.4 µM) | 2 µg/mL (≈ 3.2 µM) | 4 µg/mL (≈ 6.4 µM) | 1 µg/mL (≈ 1.6 µM) | 8 µg/mL (≈ 12.8 µM) | CC(=O)NC[C@@H]1CN(C[C@@H]2[C@H](NC(=O)/C(=N\OC3(C(=O)O)CC3)c3csc(N)n3)C(=O)N2S(=O)(=O)O)S(=O)(=O)N1 [Compound 6] |
